Data taken from the supplement of paper PMC9663587.

Key:
[1] = compound: CCN1CCN(Cc2ccc(Nc3ncc(F)c(-c4cc(F)c5nc(C)n(C(C)C)c5c4)n3)nc2)CC1; experiment: increase in dead-cell fraction, 72 h; higher = more death;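 also: breast cancer cell lines in 384-well plates, stained with Hoechst plus LIVE/DEAD far red dye and imaged, cells above an LDR intensity threshold counted dead, Hoechst-negative corpses included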
Flavopiridol [2] = compound: T1, CN1CC[C@H](c2c(O)cc(O)c3c(=O)cc(-c4ccccc4Cl)oc23)[C@H](O)C1 [Flavopiridol]; experiment: as above
LEE011/Ribociclib = compound: CN(C)C(=O)c1cc2cnc(Nc3ccc(N4CCNCC4)cn3)nc2n1C1CCCC1 [LEE011/Ribociclib]; experiment: GR value, 72 h; higher = faster growth (1 = untreated, <0 = killing);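 also: breast cancer and non-malignant breast epithelial lines, nine half-log doses, viable cells counted by Hoechst and LIVE/DEAD dye imaging versus time-zero plates and DMSO controls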
[3] = compound: CCN1CCN(Cc2ccc(Nc3ncc(F)c(-c4cc(F)c5nc(C)n(C(C)C)c5c4)n3)nc2)CC1; experiment: as above
[4] = compound: CCc1cnn2c(NCc3ccc[n+]([O-])c3)cc(N3CCCC[C@H]3CCO)nc12; experiment: as above
Flavopiridol [5] = compound: T1, Flavopiridol; experiment: as above
[6] = compound: CC(=O)c1c(C)c2cnc(Nc3ccc(N4CCNCC4)cn3)nc2n(C2CCCC2)c1=O; experiment: as above
THZ1 = compound: CN(C)C/C=C/C(=O)Nc1ccc(C(=O)Nc2cccc(Nc3ncc(Cl)c(-c4c[nH]c5ccccc45)n3)c2)cc1 [THZ1]; experiment: as above
THZ531 = compound: CN(C)C/C=C/C(=O)Nc1ccc(C(=O)N2CCC[C@@H](Nc3ncc(Cl)c(-c4c[nH]c5ccccc45)n3)C2)cc1 [THZ531]; experiment: as above
BSJ-03-123 = compound: CC(=O)c1c(C)c2cnc(Nc3ccc(N4CCN(CCOCCOCCOCCNC(=O)COc5cccc6c5C(=O)N(C5CCC(=O)NC5=O)C6=O)CC4)cn3)nc2n(C2CCCC2)c1=O [BSJ-03-123]; experiment: as above
Neratinib/HKI272 = compound: CCOc1cc2ncc(C#N)c(Nc3ccc(OCc4ccccn4)c(Cl)c3)c2cc1NC(=O)/C=C/CN(C)C [Neratinib/HKI272]; experiment: as above
YKL-5-124 = compound: C=CC(=O)Nc1ccc(C(=O)Nc2[nH]nc3c2CN(C(=O)N[C@H](CN(C)C)c2ccccc2)C3(C)C)cc1 [YKL-5-124]; experiment: as above

Cell Line: SUM52PE
- increase in dead-cell fraction ([1]; 0.001 µM): -0.0031
- increase in dead-cell fraction ([1]; 0.003162 µM): -0.0003
- increase in dead-cell fraction ([1]; 0.01 µM): 0.0005
- increase in dead-cell fraction ([1]; 0.03162 µM): 0.0052
- increase in dead-cell fraction ([1]; 0.1 µM): 0.0077
- increase in dead-cell fraction ([1]; 0.3162 µM): 0.0061
- increase in dead-cell fraction ([1]; 1 µM): 0.0107
- increase in dead-cell fraction ([1]; 3.162 µM): 0.0058
- increase in dead-cell fraction ([1]; 10 µM): 0.0135
- increase in dead-cell fraction (Flavopiridol [2]; 0.0001 µM): 0.0019
- increase in dead-cell fraction (Flavopiridol [2]; 0.0003162 µM): -0.0012
- increase in dead-cell fraction (Flavopiridol [2]; 0.001 µM): 0.0042
- increase in dead-cell fraction (Flavopiridol [2]; 0.003162 µM): 0.0019
- increase in dead-cell fraction (Flavopiridol [2]; 0.01 µM): -0.0015
- increase in dead-cell fraction (Flavopiridol [2]; 0.03162 µM): 0
- increase in dead-cell fraction (Flavopiridol [2]; 0.1 µM): 0.0003
- increase in dead-cell fraction (Flavopiridol [2]; 0.3162 µM): 0.0166
- increase in dead-cell fraction (Flavopiridol [2]; 1 µM): 0.392
- GR value (LEE011/Ribociclib; 0.001 µM): 0.991 GR
- GR value (LEE011/Ribociclib; 0.003162 µM): 0.857 GR
- GR value (LEE011/Ribociclib; 0.01 µM): 0.861 GR
- GR value (LEE011/Ribociclib; 0.03162 µM): 0.86 GR
- GR value (LEE011/Ribociclib; 0.1 µM): 0.822 GR
- GR value (LEE011/Ribociclib; 0.3162 µM): 0.797 GR
- GR value (LEE011/Ribociclib; 1 µM): 0.69 GR
- GR value (LEE011/Ribociclib; 3.162 µM): 0.681 GR
- GR value (LEE011/Ribociclib; 10 µM): 0.54 GR
- GR value ([3]; 0.001 µM): 0.991 GR
- GR value ([3]; 0.003162 µM): 0.962 GR
- GR value ([3]; 0.01 µM): 0.86 GR
- GR value ([3]; 0.03162 µM): 0.766 GR
- GR value ([3]; 0.1 µM): 0.619 GR
- GR value ([3]; 0.3162 µM): 0.497 GR
- GR value ([3]; 1 µM): 0.459 GR
- GR value ([3]; 3.162 µM): 0.365 GR
- GR value ([3]; 10 µM): 0.289 GR
- GR value ([4]; 0.0001 µM): 1.08 GR
- GR value ([4]; 0.0003162 µM): 1.14 GR
- GR value ([4]; 0.001 µM): 1.01 GR
- GR value ([4]; 0.003162 µM): 1.05 GR
- GR value ([4]; 0.01 µM): 0.925 GR
- GR value ([4]; 0.03162 µM): -0.0619 GR
- GR value ([4]; 0.1 µM): -0.245 GR
- GR value ([4]; 0.3162 µM): -0.322 GR
- GR value ([4]; 1 µM): -0.175 GR
- GR value (Flavopiridol [5]; 0.0001 µM): 1.07 GR
- GR value (Flavopiridol [5]; 0.0003162 µM): 1.06 GR
- GR value (Flavopiridol [5]; 0.001 µM): 0.942 GR
- GR value (Flavopiridol [5]; 0.003162 µM): 0.915 GR
- GR value (Flavopiridol [5]; 0.01 µM): 1.02 GR
- GR value (Flavopiridol [5]; 0.03162 µM): 0.945 GR
- GR value (Flavopiridol [5]; 0.1 µM): 0.8 GR
- GR value (Flavopiridol [5]; 0.3162 µM): 0.357 GR
- GR value (Flavopiridol [5]; 1 µM): -0.26 GR
- GR value ([6]; 0.0003162 µM): 1.1 GR
- GR value ([6]; 0.001 µM): 1.06 GR
- GR value ([6]; 0.003162 µM): 1.01 GR
- GR value ([6]; 0.01 µM): 0.97 GR
- GR value ([6]; 0.03162 µM): 0.863 GR
- GR value ([6]; 0.1 µM): 0.695 GR
- GR value ([6]; 0.3162 µM): 0.607 GR
- GR value ([6]; 1 µM): 0.475 GR
- GR value ([6]; 3.162 µM): 0.348 GR
- GR value (THZ1; 0.0001 µM): 1.03 GR
- GR value (THZ1; 0.0003162 µM): 1.01 GR
- GR value (THZ1; 0.001 µM): 1.04 GR
- GR value (THZ1; 0.003162 µM): 0.8 GR
- GR value (THZ1; 0.01 µM): 0.733 GR
- GR value (THZ1; 0.03162 µM): 0.0891 GR
- GR value (THZ1; 0.1 µM): -0.0885 GR
- GR value (THZ1; 0.3162 µM): -0.151 GR
- GR value (THZ1; 1 µM): -0.403 GR
- GR value (THZ531; 0.0001 µM): 1.05 GR
- GR value (THZ531; 0.0003162 µM): 0.984 GR
- GR value (THZ531; 0.001 µM): 0.937 GR
- GR value (THZ531; 0.003162 µM): 0.994 GR
- GR value (THZ531; 0.01 µM): 1.02 GR
- GR value (THZ531; 0.03162 µM): 0.978 GR
- GR value (THZ531; 0.1 µM): 0.818 GR
- GR value (THZ531; 0.3162 µM): 0.186 GR
- GR value (THZ531; 1 µM): -0.226 GR
- GR value (BSJ-03-123; 0.001 µM): 1.02 GR
- GR value (BSJ-03-123; 0.003162 µM): 0.851 GR
- GR value (BSJ-03-123; 0.01 µM): 0.868 GR
- GR value (BSJ-03-123; 0.03162 µM): 0.883 GR
- GR value (BSJ-03-123; 0.1 µM): 0.862 GR
- GR value (BSJ-03-123; 0.3162 µM): 0.78 GR
- GR value (BSJ-03-123; 1 µM): 0.657 GR
- GR value (BSJ-03-123; 3.162 µM): 0.634 GR
- GR value (BSJ-03-123; 10 µM): 0.228 GR
- GR value (Neratinib/HKI272; 0.0003162 µM): 1.01 GR
- GR value (Neratinib/HKI272; 0.001 µM): 0.991 GR
- GR value (Neratinib/HKI272; 0.003162 µM): 1.01 GR
- GR value (Neratinib/HKI272; 0.01 µM): 1.06 GR
- GR value (Neratinib/HKI272; 0.03162 µM): 1.01 GR
- GR value (Neratinib/HKI272; 0.1 µM): 1.01 GR
- GR value (Neratinib/HKI272; 0.3162 µM): 0.959 GR
- GR value (Neratinib/HKI272; 1 µM): 0.876 GR
- GR value (Neratinib/HKI272; 3.162 µM): 0.503 GR
- GR value (YKL-5-124; 0.001 µM): 0.72 GR
- GR value (YKL-5-124; 0.003162 µM): 0.654 GR
- GR value (YKL-5-124; 0.01 µM): 0.573 GR
- GR value (YKL-5-124; 0.03162 µM): 0.552 GR
- GR value (YKL-5-124; 0.1 µM): 0.437 GR
- GR value (YKL-5-124; 0.3162 µM): 0.391 GR
- GR value (YKL-5-124; 1 µM): 0.364 GR
- GR value (YKL-5-124; 3.162 µM): 0.227 GR
- GR value (YKL-5-124; 10 µM): 0.0112 GR
